The text below walks through data of patent publication US6638973B2, “Taxane formulations” (FSU Research Foundation, Inc., priority 2000, dated 2003).

One experiment concerns HCT116 cells. Nature of the experiment: In vitro cytotoxicity measured by the cell colony formation assay. The experiment is classed as cell-based. The note with it: HCT116 cells, 72 h incubation with drug, colonies counted after 7 days; ID50 = drug concentration producing 50% inhibition of colony formation; read-out: IN VITRO ID 50 (nm) HCT116. The method, then:
(§1) Four hundred cells (HCT116) were plated in 60 mm Petri dishes containing 2.7 mL of medium (modified McCoy's 5a medium containing 10% fetal bovine serum and 100 units/mL penicillin and 100 µg/mL streptomycin). The cells were incubated in a CO2 incubator at 37° C. for 5 h for attachment to the bottom of Petri dishes. The compounds identified in Example 2 were made up fresh in medium at ten times the final concentration, and then 0.3 mL of this stock solution was added to the 2.7 mL of medium in the dish. The cells were then incubated with drugs for 72 h at 37° C. At the end of incubation the drug-containing media were decanted, the dishes were rinsed with 4 mL of Hank's Balance Salt Solution (HBSS), 5 mL of fresh medium was added, and the dishes were returned to the incubator for colony formation. The cell colonies were counted using a colony counter after incubation for 7 days.
as §1, with “Example 7” for “Example 2”
as §1, with “Example 22” for “Example 2”
as §1, with “Example 27” for “Example 2”
Four hundred cells (HCT116) were plated in 60 mm Petri dishes containing 2.7 mL of medium (modified McCoy's 5a medium containing 10% fetal bovine serum and 100 units/mL penicillin and 100 µg/mL streptomycin). The cells were incubated in a CO2 incubator at 37° C. for 5 h for attachment to the bottom of Petri dishes. […]
With `CCOC(=O)O[C@H]1C(=O)[C@@]2(C)C([C@H](OC(=O)c3ccccc3)[C@]3(O)C[C@H](OC(=O)[C@H](O)[C@@H](NC(=O)OCC(C)C)c4ccoc4)C(C)=C1C3(C)C)[C@]1(OC(C)=O)CO[C@@H]1C[C@@H]2O` (some centres unmarked) [Compound 4636], the IC50 is below 10 nM.

Turning to `COC(=O)O[C@H]1C(=O)[C@@]2(C)C([C@H](OC(=O)c3ccccc3)[C@]3(O)C[C@H](OC(=O)[C@H](O)[C@@H](NC(=O)OC(C)(C)C)c4ccccc4)C(C)=C1C3(C)C)[C@]1(OC(C)=O)CO[C@@H]1C[C@@H]2O` (some centres unmarked) [Compound 2092], the IC50 was below 1 nM.

As to `CCOC(=O)O[C@H]1C(=O)[C@@]2(C)C([C@H](OC(=O)c3ccccc3)[C@]3(O)C[C@H](OC(=O)[C@H](O)[C@@H](NC(=O)OC(C)(C)C)c4ccccc4)C(C)=C1C3(C)C)[C@]1(OC(C)=O)CO[C@@H]1C[C@@H]2O` (some centres unmarked) [Compound 1771], the IC50 is below 10 nM.

Consider `CCOC(=O)O[C@H]1C(=O)[C@@]2(C)C([C@H](OC(=O)c3ccccc3)[C@]3(O)C[C@H](OC(=O)[C@H](O)[C@@H](NC(=O)OC(C)(C)C)C4CC4)C(C)=C1C3(C)C)[C@]1(OC(C)=O)CO[C@@H]1C[C@@H]2O` (some centres unmarked) [Compound 5171], for which the IC50 is below 1 nM.

Consider `CCOC(=O)O[C@H]1C(=O)[C@@]2(C)C([C@H](OC(=O)c3ccccc3)[C@]3(O)C[C@H](OC(=O)[C@H](O)[C@@H](NC(=O)c4cccnc4)c4cccs4)C(C)=C1C3(C)C)[C@]1(OC(C)=O)CO[C@@H]1C[C@@H]2O` (some centres unmarked) [Compound 3300], for which the IC50 is below 10 nM.

With `C/C=C/C(=O)N[C@@H](c1ccco1)[C@@H](O)C(=O)O[C@H]1C[C@@]2(O)[C@@H](OC(=O)c3ccccc3)C3[C@](C)(C(=O)[C@H](O)C(=C1C)C2(C)C)[C@@H](OC(=O)OCC)C[C@H]1OC[C@@]31OC(C)=O` (some centres unmarked) [Compound 4818], the IC50 is below 1 nM.

As for `CCOC(=O)O[C@H]1C[C@H]2OC[C@@]2(OC(C)=O)C2[C@H](OC(=O)c3ccccc3)[C@]3(O)C[C@H](OC(=O)[C@H](O)[C@@H](NC(=O)OCC(C)C)c4ccsc4)C(C)=C([C@@H](O)C(=O)[C@@]21C)C3(C)C` (some centres unmarked) [Compound 4979], the IC50 is below 10 nM.

Regarding `COC(=O)O[C@H]1C(=O)[C@@]2(C)C([C@H](OC(=O)c3ccccc3)[C@]3(O)C[C@H](OC(=O)[C@H](O)[C@@H](NC(=O)OC(C)(C)C)c4cccs4)C(C)=C1C3(C)C)[C@]1(OC(C)=O)CO[C@@H]1C[C@@H]2O` (some centres unmarked) [Compound 2044], the IC50 was below 1 nM.

Regarding `COC(=O)O[C@H]1C[C@H]2OC[C@@]2(OC(C)=O)C2[C@H](OC(=O)c3ccccc3)[C@]3(O)C[C@H](OC(=O)[C@H](O)[C@@H](NC(=O)OCC(C)C)c4ccco4)C(C)=C([C@@H](O)C(=O)[C@@]21C)C3(C)C` (some centres unmarked) [Compound 4656], the IC50 is below 1 nM.

The experiment is the same for the next values; noted with them: HCT116 cells, colony formation, 72 h incubation with drug, colonies counted after 7 days; ID50 = drug concentration producing 50% inhibition of colony formation; read-out: IN VITRO ID 50 (nm) HCT116.
On to `CCNC(=O)O[C@H]1C(=O)[C@@]2(C)C([C@H](OC(=O)c3ccccc3)[C@]3(O)C[C@H](OC(=O)[C@H](O)[C@@H](NC(=O)OC(C)(C)C)c4ccccc4)C(C)=C1C3(C)C)[C@]1(OC(C)=O)CO[C@@H]1C[C@@H]2O` (some centres unmarked) [Compound 2640], for which the IC50 was below 1 nM.

Staying with this experiment, now noted: HCT116 colony formation; 72 h drug incubation, colonies counted after 7 days; Example 5, C-7 ester/C-10 hydroxy taxanes; read-out: IN VITRO ID 50 (nm) HCT116.
As for `CCCC(=O)O[C@H]1C[C@H]2OC[C@@]2(OC(C)=O)C2[C@H](OC(=O)c3ccccc3)[C@]3(O)C[C@H](OC(=O)[C@H](O)[C@@H](NC(=O)OC(C)(C)C)C4CC4)C(C)=C([C@@H](O)C(=O)[C@@]21C)C3(C)C` (some centres unmarked) [Compound 5080], the IC50 was below 1 nM.

On to `CCC(=O)O[C@H]1C[C@H]2OC[C@@]2(OC(C)=O)C2[C@H](OC(=O)c3ccccc3)[C@]3(O)C[C@H](OC(=O)[C@H](O)[C@@H](NC(=O)OC(C)(C)CC)c4ccco4)C(C)=C([C@@H](O)C(=O)[C@@]21C)C3(C)C` (some centres unmarked) [Compound 6212], for which the IC50 is below 1 nM.

In the case of `CCC(=O)O[C@H]1C[C@H]2OC[C@@]2(OC(C)=O)C2[C@H](OC(=O)c3ccccc3)[C@]3(O)C[C@H](OC(=O)[C@H](O)[C@H](C=C(C)C)NC(=O)OC(C)(C)C)C(C)=C([C@@H](O)C(=O)[C@@]21C)C3(C)C` (some centres unmarked) [Compound 1351], the IC50 is below 1 nM.

Regarding `CCCCC(=O)O[C@H]1C[C@H]2OC[C@@]2(OC(C)=O)C2[C@H](OC(=O)c3ccccc3)[C@]3(O)C[C@H](OC(=O)[C@H](O)[C@@H](NC(=O)OC=C(C)C)c4ccco4)C(C)=C([C@@H](O)C(=O)[C@@]21C)C3(C)C` (some centres unmarked) [Compound 6141], the IC50 is below 1 nM.

Staying with this experiment, now noted: HCT116 colony formation; 72 h drug incubation, colonies counted after 7 days; Example 10, C-10 ester/C-7 hydroxy taxanes; read-out: IN VITRO ID 50 (nm) HCT116.
With `CCCC(=O)O[C@H]1C(=O)[C@@]2(C)C([C@H](OC(=O)c3ccccc3)[C@]3(O)C[C@H](OC(=O)[C@H](O)[C@H](C=C(C)C)NC(=O)OCC(C)C)C(C)=C1C3(C)C)[C@]1(OC(C)=O)CO[C@@H]1C[C@@H]2O` (some centres unmarked) [Compound 5144], the IC50 is below 10 nM.

`CCC(=O)O[C@H]1C(=O)[C@@]2(C)C([C@H](OC(=O)c3ccccc3)[C@]3(O)C[C@H](OC(=O)[C@H](O)[C@@H](NC(=O)OC(C)C)c4cccs4)C(C)=C1C3(C)C)[C@]1(OC(C)=O)CO[C@@H]1C[C@@H]2O` (some centres unmarked) [Compound 3361]: the IC50 is below 1 nM.

As to `CCCC(=O)O[C@H]1C(=O)[C@@]2(C)C([C@H](OC(=O)c3ccccc3)[C@]3(O)C[C@H](OC(=O)[C@H](O)[C@@H](NC(=O)c4ccccc4)C4CC4)C(C)=C1C3(C)C)[C@]1(OC(C)=O)CO[C@@H]1C[C@@H]2O` (some centres unmarked) [Compound 3482], the IC50 was below 1 nM.

`CCC(=O)O[C@H]1C(=O)[C@@]2(C)C([C@H](OC(=O)c3ccccc3)[C@]3(O)C[C@H](OC(=O)[C@H](O)[C@@H](NC(=O)c4ccco4)c4ccco4)C(C)=C1C3(C)C)[C@]1(OC(C)=O)CO[C@@H]1C[C@@H]2O` (some centres unmarked) [Compound 3818]: the IC50 is below 1 nM.

In the case of `CCC(=O)O[C@H]1C(=O)[C@@]2(C)C([C@H](OC(=O)c3ccccc3)[C@]3(O)C[C@H](OC(=O)[C@H](O)[C@@H](NC(=O)c4ccccc4)c4ccsc4)C(C)=C1C3(C)C)[C@]1(OC(C)=O)CO[C@@H]1C[C@@H]2O` (some centres unmarked) [Compound 0691], the IC50 was below 1 nM.

For `CC(=O)O[C@@]12CO[C@@H]1C[C@H](O)[C@@]1(C)C(=O)[C@H](OC(=O)C3CC3)C3=C(C)[C@@H](OC(=O)[C@H](O)[C@@H](NC(=O)c4cccs4)c4cccs4)C[C@@](O)([C@@H](OC(=O)c4ccccc4)C12)C3(C)C` (some centres unmarked) [Compound 3453], the IC50 is below 1 nM.

`CC(=O)O[C@@]12CO[C@@H]1C[C@H](O)[C@@]1(C)C(=O)[C@H](OC(=O)C3CC3)C3=C(C)[C@@H](OC(=O)[C@H](O)[C@@H](NC(=O)c4ccccc4)c4ccsc4)C[C@@](O)([C@@H](OC(=O)c4ccccc4)C12)C3(C)C` (some centres unmarked) [Compound 2838]: the IC50 was below 1 nM.

As for `CC(=O)O[C@@]12CO[C@@H]1C[C@H](O)[C@@]1(C)C(=O)[C@H](OC(=O)C(C)C)C3=C(C)[C@@H](OC(=O)[C@H](O)[C@@H](NC(=O)OC(C)(C)C)c4ccc([N+](=O)[O-])cc4)C[C@@](O)([C@@H](OC(=O)c4ccccc4)C12)C3(C)C` (some centres unmarked) [Compound 2320], the IC50 was below 1 nM.

Staying with this experiment, now noted: HCT116 colony formation; 72 h drug incubation, colonies counted after 7 days; Example 15, C-7 substituted acetate/C-10 hydroxy taxanes; read-out: IN VITRO ID 50 (nm) HCT116.
For `C/C=C/C(=O)N[C@@H](c1ccco1)[C@@H](O)C(=O)O[C@H]1C[C@@]2(O)[C@@H](OC(=O)c3ccccc3)C3[C@](C)(C(=O)[C@H](O)C(=C1C)C2(C)C)[C@@H](OC(=O)COc1ccccc1)C[C@H]1OC[C@@]31OC(C)=O` (some centres unmarked) [Compound 5811], the IC50 was below 1 nM.
